Read-outs that look alike come from different tables or passages of the source.
Columns and labels:
[1] = Brain entry and pharmacokinetics of RAP-103 after oral gavage and IV dosing; type: in vivo, rats and guinea pigs
[2] = Plasma pharmacokinetics and acute tolerability of RAP-103 in non-human primates; type: in vivo, Rhesus macaques (Macaca mulatta)
Method: In non-human primates (rhesus monkeys) RAP-103 was dosed once on Day 1 by intravenous bolus injection at 1 mg/kg and plasma levels determined. […] Drug in plasma after a single IV dose (1 mg/Kg) was still measurable at anticipated therapeutic levels 96 hrs. post-dose in non-human primates as shown in FIG. 2B.

[3] = test system: STZ-induced diabetic neuropathic pain
Method: Chronic pain development was determined with behavior and molecular/cellular testing and inflammatory reactions in Streptozotocin (STZ)-induced diabetic rats treated with RAP-103.
(§1) Induction and assessment of diabetes in rats: Rats were fasted overnight and given a single intraperitoneal injection of STZ (60 mg/kg, Sigma-Aldrich) in citrate buffer (pH 4.5) to induce type I diabetes. The induction of diabetes was confirmed 72 h post-injection by blood glucose levels (Contour® blood glucose diagnostic kit, Bayer HealthCare, Canada). Body weight and blood glucose levels were measured before and 3 days post-STZ injection and once a week for three weeks post-diabetes induction. Only rats with blood glucose concentration consistently higher than 300 mg/dl were used for the study. Rats used for the study were monitored for persistent mechanical and cold allodynia (up to five months post-induction) and only animals with persistent pain were used.
This solution was prepared freshly for each experiment and kept for 8 days (duration of one experiment) at room temperature. Appropriate concentration for each dose was adjusted accordingly.
Treatment paradigms: Autoclaved water (vehicle) or RAP-103 (0.004, 0.02, 0.1 or 0.5 mg/kg b.w.) was administered daily for 8 days by oral gavage to rats with stable mechanical and cold allodynia (n=5 H2O; n=7 RAP-103).
Assessment of neuropathic pain: Tactile allodynia, mechanical sensitivity was assessed using calibrated. Animals were placed in plexiglass boxes on an elevated metal mesh floor and allowed 60 min for habituation before testing. A series of von Frey filaments with logarithmically incrementing stiffness (Stoelting) was applied perpendicular to the midplantar region of the hind paw. The 50% paw withdrawal threshold was determined using Dixon's up-down method. Withdrawal thresholds of both paws were averaged as one single value per animal.
Cold Allodynia: was assessed using the same apparatus as the von Frey test. Rats were allowed to adapt to the testing environment for at least 10 min. Then, a drop (50 μl) of acetone was applied with a glass syringe fitted with a blunted needle at the centre of the plantar face of a hind paw. Responses were monitored during 1 min after acetone application and were graded according to a 4-point scale: 0, no response; 1, quick withdrawal, flick or stamp of the paw; 2, prolonged withdrawal or repeated flicking of the paw; 3, repeated flicking of the paw with persistent licking directed at the ventral side of the paw. Cumulative scores were then obtained by summing the four scores for each rat, the minimum score being 0 (no response to any of the four trials) and the maximum possible score being 12 (repeated flicking and licking of paws on each of the four trials). Rats were habituated to the testing environment. […] All data is presented as means±SEM. Statistical analysis was performed by two-way ANOVA followed by Bonferroni post-tests. The criterion for statistical significance was p<0.05.

[4] = test system: STZ-induced diabetic neuropathic pain; details: oral administration for 7 days, FIG. 4
Method: as §1, with “used. […]” for “used.”
Cold Allodynia: was assessed using the same apparatus as the von Frey test. Rats were allowed to adapt to the testing environment for at least 10 min. Then, a drop (50 μl) of acetone was applied with a glass syringe fitted with a blunted needle at the centre of the plantar face of a hind paw. Responses were monitored during 1 min after acetone application and were graded according to a 4-point scale: 0, no response; 1, quick withdrawal, flick or stamp of the paw; 2, prolonged withdrawal or repeated flicking of the paw; 3, repeated flicking of the paw with persistent licking directed at the ventral side of the paw. […]

[5] = test system: post-incisional mechanical allodynia; details: RAP-103 0.5 mg/kg i.p.
Description: Data are expressed as mean±standard error of the mean (S.E.M.), and p<0.05 was accepted as statistically significant.

stress from PPSP = details: oral pill, daily administration for one week
Method: A subject is diagnosed with stress from PPSP. A subject is prescribed a dosing regimen of a pharmaceutical composition. The pharmaceutical composition comprises a therapeutically effective amount of RAP-103. RAP-103 is administered orally as a pill to treat the stress from PPSP.

obesity = details: oral, daily administration for 3 weeks
Method: A subject is diagnosed with obesity. The subject is prescribed a dosing regimen of a pharmaceutical composition. The pharmaceutical composition comprises a therapeutically effective amount of RAP-103. RAP-103 is administered orally to treat obesity.

[6] = Plasma bioavailability and elimination half-life of RAP-103 (species not stated); type: in vivo; details: oral, i.p., ss, and IV dosing
[7] = test system: mRNAs encoding CCL2, CCL3, CCR2, CCR5, IL1β, and TNFα
plasma cytokines = test: Plasma cytokine measurements in patients treated with DAPTA (capillary electrophoresis and ELISA); type: in vivo, humans
Description: The specific cytokines IL-1β, IL-10 and IL-12 have been identified as imbalanced following total knee replacement surgeries which increases risk for persistent post-operative pain. Measurement of these cytokines may be used to predict response to therapy, such as treatment by any of the peptides, salts thereof, or compositions of these, including those herein. Since the administration of the peptide DAPTA normalizes multiple plasma cytokines associated with PPSP then DAPTA and other analogs as we have described may be used to treat chronic pain conditions, specifically PPSP. Five HIV patients received DAPTA, 3 mgs/day, by metered nasal spray for 6 to 8 weeks (mean 7+0.6 wks). Patients were not taking other concurrent anti-pain or anti-retroviral therapies. At the beginning and end of the study period heparinized blood was collected and immediately clarified by centrifugation. Plasma aliquots were made and stored frozen at −70 C° for further testing. All sample testing was done on blinded samples at independent testing centers.
Cytokine measurements in patients treated with DAPTA were made after capillary electrophoresis isolation of individual cytokine peaks, followed by enzyme-linked immunoassay using specific antibodies. […] Separated chemical compounds appear as peaks with different migration times in an electropherogram. The purified sample peaks were individually collected and concentration determined by a quantitative enzyme-linked immunosorbent assay (ELISA) using specific antibodies to determine the analyte concentration.

CX3CR1 = CX3CR1 (Homo sapiens, UniProt P49238); details: CX3CL1 2.5 nM, FIG. 8
Method: All peptides were purified to >95% homogeneity and verified by HPLC isolation, amino acid analysis, and mass spectroscopy. Peptides were dissolved in sterile water and stored as frozen (−20° C.) aliquots at 0.1 mM until use. Chemotaxis was assayed in 96-well plates (NeuroProbe, Cabin John, MD) with […] pore size, PVP-free membranes. Purified human monocytes (>95%) prepared from healthy adult human donors by centrifugal elutriation (>95% pure) were resuspended in chemotaxis assay buffer (DMEM supplemented with 0.1% BSA) at a density of 2×10^6 cells/ml. Cells were labelled with 1.0 μM Calcein AM (Invitrogen) for 30 minutes at 37° C., 5% CO2. Following incubation, cells were washed once and resuspended in chemotaxis assay buffer (DMEM, 1 mg/ml BSA, 25 mM Hepes) at a density of 2×10^6 cells/ml. […] The filter plate ([…] pore size, PVP-free membrane) was snapped on over the filled wells and the monocytes were loaded onto the upper filter surface ([…] in 25 μl). […] At the conclusion of the test period, non-migrating cells were wiped off the upper filter surface and relative fluorescence units (RFUs) of the migrating cells from the lower surface determined by bottom reading in a spectrometer (M5 SpectraMax) at 485/530 nm (Ex/Em). Triplicate determinations were made and results are expressed as the mean Relative Fluorescence Units as depicted in FIG. 8.

[8] = partial nerve ligation and diabetic pain
[9] = plasma, five HIV patients, 3 mgs/day nasal spray, 6 to 8 weeks

Chain of CX3CR1 (P49238 whole entry): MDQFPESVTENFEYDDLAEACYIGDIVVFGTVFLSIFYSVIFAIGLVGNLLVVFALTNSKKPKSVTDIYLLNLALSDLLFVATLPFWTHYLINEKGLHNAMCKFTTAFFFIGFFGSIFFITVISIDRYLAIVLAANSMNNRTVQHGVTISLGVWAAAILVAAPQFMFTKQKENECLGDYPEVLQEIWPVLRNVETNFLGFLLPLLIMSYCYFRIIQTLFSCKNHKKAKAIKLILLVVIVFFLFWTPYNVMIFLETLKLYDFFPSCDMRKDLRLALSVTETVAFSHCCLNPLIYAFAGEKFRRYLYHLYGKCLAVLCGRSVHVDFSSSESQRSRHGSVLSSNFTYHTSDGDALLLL

With `C[C@H](O)[C@@H](N)C(=O)N[C@@H](C(=O)N[C@H](CC(N)=O)C(=O)N[C@H](Cc1ccc(O)cc1)C(=O)N[C@@H](C(=O)O)[C@H](C)O)[C@H](C)O` [RAP-103, All D-peptide-Thr-Thr-Asn-Tyr-Thr] the “brain entry by oral compared to IV dosing” value ([1]; FIG. 2A) was “preferentially entered the brain by oral compared to IV dosing”, the brain entry ([1]; IV or oral gavage dosing) was “quickly entered the brain” and the “persistence at therapeutic levels in brain” value ([1]; IV or oral gavage dosing, FIG. 2A) was “at least 24 hrs”. For the same molecule, the “brain entry compared to plasma levels” value ([1]; in vivo) was “preferentially enters the brain compared to plasma levels”, the “Cmax and AUC 0-T in male versus female monkeys” value ([2]; 1 mg/kg) was “comparable” and the “RAP-103-related changes in clinical observations or body weights” value ([2]; over seven days after dosing) was “no acute toxicity”. For the same molecule, the “time post-dose at which drug in plasma was still measurable at anticipated therapeutic levels” value ([2]; single IV dose 1 mg/Kg, FIG. 2B) was ≥ 96 h, the “effect on mechanical allodynia by dose” value ([3]; 0.004 mg/kg daily oral) was “not” and the “effect on mechanical allodynia by dose” value ([3]; 0.02 mg/kg daily oral) was “effective”. For the same molecule, the “effect on mechanical allodynia by dose” value ([3]; 0.1 mg/kg daily oral) was “effective”, the “effect on mechanical allodynia by dose” value ([3]; 0.5 mg/kg daily oral) was “effective” and the “time until reversal of hypersensitivity became significant” value ([3]; daily oral gavage) was 24 to 48 h. For the same molecule, the cold allodynia [4] was “reductions”, the “increase of the potency of morphine” value [5] was “over 2 fold” and the “stress and pain in patient suffering from PPSP” value (stress from PPSP) was “reduced”. The “subject's weight” value (obesity) was “decreases”, the half-life ([6]; in vivo, read-out: half-life (HL) elimination (converted)) was ~2.7 h and the plasma bioavailability [6] was “significant plasma bioavailability”. For the same molecule, the “chemokine receptor CCR2” value ([7]; neuropathic pain, FIG. 5) was “lowered”, the “chemokine receptor CCR5” value ([7]; neuropathic pain, FIG. 5) was “lowered” and the “spinal cord mRNA encoding cytokines and chemokines” value ([7]; oral administration for 7 days versus vehicle (H20), FIG. 5) was “reductions”. The CCL3 [7, 8] was “significantly reduced”, the IL-1β [7, 8] was “significantly reduced” and the TNFα [7, 8] was “significantly reduced”.

With dASTTTNYT-NH2 [DAPTA] the “cytokines IL-4, IL-10, IL-12 and IL-13” value (plasma cytokines; intranasal dosing, P<0.005) was “increased significantly”, the “plasma levels of IL-1β, IL-6, IL-8, and TNFα” value (plasma cytokines; intranasal dosing, P<0.005) was “significant reductions” and the “IL-1β % CHANGE BASELINE to POST-DRUG” value (plasma cytokines; plasma, **p < .005) was −46%**. For the same molecule, the “IL-2 % CHANGE BASELINE to POST-DRUG” value (plasma cytokines; plasma, **p < .005) was “+395** %”, the “IL-4 % CHANGE BASELINE to POST-DRUG” value (plasma cytokines; plasma, **p < .005) was “+448** %” and the “IL-6 % CHANGE BASELINE to POST-DRUG” value (plasma cytokines; plasma, **p < .005) was −28%**. The “IL-8 % CHANGE BASELINE to POST-DRUG” value (plasma cytokines; plasma, **p < .005) was −30%**, the “IL-10 % CHANGE BASELINE to POST-DRUG” value (plasma cytokines; plasma, **p < .005) was “+350** %” and the “IL-12 % CHANGE BASELINE to POST-DRUG” value (plasma cytokines; plasma, **p < .005) was “+363** %”. For the same molecule, the “IL-13 % CHANGE BASELINE to POST-DRUG” value (plasma cytokines; plasma, **p < .005) was “+416** %”, the “TNFα % CHANGE BASELINE to POST-DRUG” value (plasma cytokines; plasma, **p < .005) was −23%** and the “IL-1β CYTOKINE MEAN ± s.e.m. Post-Treatment” value (plasma cytokines; [9]) was 174 ± 26 pgs/ml. For the same molecule, the “IL-2 CYTOKINE MEAN ± s.e.m. Post-Treatment” value (plasma cytokines; [9]) was 57 ± 9 pgs/ml, the “IL-4 CYTOKINE MEAN ± s.e.m. Post-Treatment” value (plasma cytokines; [9]) was 28 ± 8 pgs/ml and the “IL-6 CYTOKINE MEAN ± s.e.m. Post-Treatment” value (plasma cytokines; [9]) was 130 ± 21 pgs/ml. The “IL-8 CYTOKINE MEAN ± s.e.m. Post-Treatment” value (plasma cytokines; [9]) was 144 ± 76 pgs/ml, the “IL-10 CYTOKINE MEAN ± s.e.m. Post-Treatment” value (plasma cytokines; [9]) was 45 ± 5 pgs/ml and the “IL-12 CYTOKINE MEAN ± s.e.m. Post-Treatment” value (plasma cytokines; [9]) was 33 ± 7 pgs/ml. For the same molecule, the “IL-13 CYTOKINE MEAN ± s.e.m. Post-Treatment” value (plasma cytokines; [9]) was 30 ± 9 pgs/ml and the “TNFα CYTOKINE MEAN ± s.e.m. Post-Treatment” value (plasma cytokines; [9]) was 260 ± 67 pgs/ml.

With all-D-ASTTTNYT [RAP-310] the “CX3CR1 mediated human monocyte chemotaxis, % of control migration” value (CX3CR1; 0.01 pM) was 38 % of control migration and the “CX3CR1 mediated human monocyte chemotaxis, % of control migration” value (CX3CR1; 1 pM) was 24 % of control migration.

Source: patent US20240252583A1, “Compositions and Methods for Treating Persistent Postsurgical Pain” (priority 2021, published 2024)
